Laboratory results reported in ChEMBL document CHEMBL1201862, “PubChem BioAssay data set” (2004).
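Interpolation was linear, between the two tested concentrations surrounding the appropriate level; five concentrations were tested over 48 hours in 96-well plates. GI50 = concentration required for 50% inhibition of growth.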 The source made the active and inactive calls. No stated cut-off is given here; in the data, active = GI50 up to about 1.1 µM and inactive = higher.

Tests used:
Assay in all cases: NCI anticancer screen, dose series, 48 h
UACC-257 = test system: UACC-257
KM12 = test system: KM12
PC-3 = test system: PC-3
SK-MEL-28 = test system: SK-MEL-28
MOLT-4 = test system: MOLT-4
CCRF-CEM = test system: CCRF-CEM
HOP-92 = test system: HOP-92
U-251 = test system: U-251
M14 = test system: M14
A549 = test system: A549
SF-539 = test system: SF-539
SK-MEL-5 = test system: SK-MEL-5
TK-10 = test system: TK-10
NCI-H460 = test system: NCI-H460
DU-145 = test system: DU-145
HCC 2998 = test system: HCC 2998
A498 = test system: A498
NCI-H23 = test system: NCI-H23
ACHN = test system: ACHN
SW-620 = test system: SW-620
NCI-H226 = test system: NCI-H226
SK-MEL-2 = test system: SK-MEL-2
OVCAR-8 = test system: OVCAR-8
HCT-116 = test system: HCT-116
786-0 = test system: 786-0
SK-OV-3 = test system: SK-OV-3
MDA-N = test system: MDA-N
K562 = test system: K562
MDA-MB-231 = test system: MDA-MB-231
RXF 393 = test system: RXF 393
EKVX = test system: EKVX
OVCAR-3 = test system: OVCAR-3
SR = test system: SR
IGROV-1 = test system: IGROV-1
NCI-H522 = test system: NCI-H522
HT-29 = test system: HT-29
SNB-75 = test system: SNB-75
COLO 205 = test system: COLO 205
UO-31 = test system: UO-31
CAKI-1 = test system: CAKI-1
SF-295 = test system: SF-295
Hs-578T = test system: Hs-578T
BT-549 = test system: BT-549
MDA-MB-435 = test system: MDA-MB-435
HOP-62 = test system: HOP-62
SNB-19 = test system: SNB-19
HCT-15 = test system: HCT-15
SF-268 = test system: SF-268
LOX IMVI = test system: LOX IMVI
RPMI-8226 = test system: RPMI-8226
OVCAR-5 = test system: OVCAR-5
UACC-62 = test system: UACC-62
NCI/ADR-RES = test system: NCI/ADR-RES
Malme-3M = test system: Malme-3M
MCF7 = test system: MCF7
SN12C = test system: SN12C
T47D = test system: T47D
OVCAR-4 = test system: OVCAR-4
HL-60 = test system: HL-60

SMILES: O=C1C=CC(=O)c2c1ccc1c3ccccc3n(Cc3ccccc3)c21
- GI50 (UACC-257): 19 µM (inactive)
- GI50 (KM12): > 57.5 µM (inactive)
- GI50 (PC-3): 21.8 µM (inactive)
- GI50 (SK-MEL-28): 24.4 µM (inactive)
- GI50 (MOLT-4): 7.55 µM (inactive)
- GI50 (CCRF-CEM): 1.8 µM (inactive)
- GI50 (HOP-92): > 10 µM (inactive)
- GI50 (U-251): 51.9 µM (inactive)
- GI50 (M14): 18 µM (inactive)
- GI50 (A549): > 100 µM (inactive)
- GI50 (SF-539): 38.4 µM (inactive)
- GI50 (SK-MEL-5): 32.3 µM (inactive)
- GI50 (TK-10): 18.6 µM (inactive)
- GI50 (NCI-H460): > 43.2 µM (inactive)
- GI50 (DU-145): > 80.4 µM (inactive)
- GI50 (HCC 2998): > 37 µM (inactive)
- GI50 (A498): 19.8 µM (inactive)
- GI50 (NCI-H23): 19.5 µM (inactive)
- GI50 (ACHN): 18.2 µM (inactive)
- GI50 (SW-620): 7.21 µM (inactive)
- GI50 (NCI-H226): 7.29 µM (inactive)
- GI50 (SK-MEL-2): 31.5 µM (inactive)
- GI50 (OVCAR-8): 28.2 µM (inactive)
- GI50 (HCT-116): 19.1 µM (inactive)
- GI50 (786-0): 16.2 µM (inactive)
- GI50 (SK-OV-3): > 100 µM (inactive)
- GI50 (MDA-N): 23 µM (inactive)
- GI50 (K562): 2.84 µM (inactive)
- GI50 (MDA-MB-231): 20.3 µM (inactive)
- GI50 (RXF 393): 16.8 µM (inactive)
- GI50 (EKVX): > 64.9 µM (inactive)
- GI50 (OVCAR-3): 17.3 µM (inactive)
- GI50 (SR): 10.9 µM (inactive)
- GI50 (IGROV-1): 21.6 µM (inactive)
- GI50 (NCI-H522): 14.3 µM (inactive)
- GI50 (HT-29): 24.9 µM (inactive)
- GI50 (SNB-75): > 82.8 µM (inactive)
- GI50 (COLO 205): 18.9 µM (inactive)
- GI50 (UO-31): 20.2 µM (inactive)
- GI50 (CAKI-1): 17.2 µM (inactive)
- GI50 (SF-295): > 100 µM (inactive)
- GI50 (Hs-578T): 42.2 µM (inactive)
- GI50 (BT-549): 20.4 µM (inactive)
- GI50 (MDA-MB-435): 26.1 µM (inactive)
- GI50 (HOP-62): > 100 µM (inactive)
- GI50 (SNB-19): > 100 µM (inactive)
- GI50 (HCT-15): 21.9 µM
- GI50 (SF-268): 32.1 µM (inactive)
- GI50 (LOX IMVI): 20 µM (inactive)
- GI50 (RPMI-8226): 0.231 µM (active)
- GI50 (OVCAR-5): 20.9 µM (inactive)
- GI50 (UACC-62): 25.4 µM (inactive)
- GI50 (NCI/ADR-RES): 42.2 µM (inactive)
- GI50 (Malme-3M): 16.6 µM (inactive)
- GI50 (MCF7): 17.1 µM (inactive)
- GI50 (SN12C): 21.6 µM (inactive)
- GI50 (T47D): 25.1 µM (inactive)
- GI50 (OVCAR-4): 13.3 µM (inactive)

SMILES: CN1CC(S(=O)(=O)c2ccccc2)CC(S(=O)(=O)c2ccccc2)C1c1ccccc1 (stereo not drawn)
- GI50 (UACC-257): 15 µM (inactive)
- GI50 (KM12): 13.2 µM (inactive)
- GI50 (PC-3): 12.1 µM (inactive)
- GI50 (SK-MEL-28): 15.9 µM (inactive)
- GI50 (MOLT-4): 16.8 µM (inactive)
- GI50 (HOP-92): 18.2 µM (inactive)
- GI50 (U-251): 12.1 µM (inactive)
- GI50 (M14): 16.8 µM (inactive)
- GI50 (A549): 32.7 µM (inactive)
- GI50 (SF-539): 4.86 µM (inactive)
- GI50 (SK-MEL-5): 14.6 µM (inactive)
- GI50 (TK-10): 14.2 µM (inactive)
- GI50 (NCI-H460): 16.2 µM (inactive)
- GI50 (DU-145): 18 µM (inactive)
- GI50 (HCC 2998): 15.9 µM (inactive)
- GI50 (A498): 16.2 µM (inactive)
- GI50 (ACHN): 12.5 µM (inactive)
- GI50 (SW-620): 8.3 µM (inactive)
- GI50 (NCI-H226): 21.2 µM (inactive)
- GI50 (SK-MEL-2): 4.47 µM (inactive)
- GI50 (OVCAR-8): 28.7 µM (inactive)
- GI50 (HCT-116): 10.4 µM (inactive)
- GI50 (786-0): 12.2 µM (inactive)
- GI50 (SK-OV-3): 39.1 µM (inactive)
- GI50 (MDA-N): 11.6 µM (inactive)
- GI50 (K562): 15 µM (inactive)
- GI50 (HL-60): 8.81 µM (inactive)
- GI50 (MDA-MB-231): 15.3 µM (inactive)
- GI50 (RXF 393): 14.9 µM (inactive)
- GI50 (EKVX): 14.3 µM (inactive)
- GI50 (OVCAR-3): 12.3 µM (inactive)
- GI50 (SR): 6.22 µM (inactive)
- GI50 (IGROV-1): 25.9 µM (inactive)
- GI50 (NCI-H522): 2.9 µM (inactive)
- GI50 (HT-29): 14.8 µM (inactive)
- GI50 (COLO 205): 13.6 µM (inactive)
- GI50 (UO-31): 15.3 µM (inactive)
- GI50 (CAKI-1): 10.8 µM (inactive)
- GI50 (SF-295): 29.4 µM (inactive)
- GI50 (Hs-578T): 20.9 µM (inactive)
- GI50 (BT-549): 11.7 µM (inactive)
- GI50 (MDA-MB-435): 10.9 µM (inactive)
- GI50 (HOP-62): 20 µM (inactive)
- GI50 (SNB-19): 23.4 µM (inactive)
- GI50 (HCT-15): 12.4 µM
- GI50 (SF-268): 16.2 µM (inactive)
- GI50 (LOX IMVI): 11.7 µM (inactive)
- GI50 (OVCAR-5): 15.2 µM (inactive)
- GI50 (UACC-62): 14.3 µM (inactive)
- GI50 (NCI/ADR-RES): 23.3 µM (inactive)
- GI50 (Malme-3M): 13.6 µM (inactive)
- GI50 (MCF7): 12.4 µM (inactive)
- GI50 (SN12C): 10.4 µM (inactive)
- GI50 (T47D): 18.2 µM (inactive)
- GI50 (OVCAR-4): 12 µM (inactive)
